Where a SMILES comes first, the peptide text is derived from it. The star is where a group is joined. Succinyl(20-O-(20S)-CPT) = CC[C@@]1(OC(=O)CCC(=O)*)C(=O)OCc2c1cc1n(c2=O)Cc2cc3ccccc3nc2-1; Biotin = O=C1N[C@H]2[C@H](CS[C@H]2CCCCC(=O)*)N1
How the values were obtained:
4T1 cells = assay: CCK-8 assay; type: cell-based; settings: 20 μM, 4 h incubation, washed, n = 6; for cell viability, no laser: dark, further 24 h
Zeta potential = type: physicochemical; settings: 10 μM in PBS pH 7.4
Red blood cells (RBCs) = assay: Hemolysis assay; type: cell-based, BALB/c mice; settings: mouse RBC suspension in PBS, 2 h, OD540; n = 3

For `CC[C@@]1(O)C(=O)OCc2c1cc1n(c2=O)Cc2cc3ccccc3nc2-1` [Free CPT, camptothecin], the “cell viability, no laser” value (4T1 cells) was 49.3%.
In the case of `CN1C(=CC=C2CCCC(C=CC3=[N+](C)c4ccccc4C3(C)C)=C2Cl)C(C)(C)c2ccccc21.[Cl-]` [free IR775, IR775], the zeta potential (Zeta potential) is reported as “+23.9 mV”, the “cell viability, + Laser” value (4T1 cells; 808 nm laser 5 min 1 W cm−2, further 24 h, absence of biotin) is reported as 38.3% and the “cell viability, no laser” value (4T1 cells) is reported as “above 80%”.
With `CC[C@@]1(OC(=O)CCC(=O)NCCCC[C@H](NC(=O)[C@H](Cc2ccccc2)NC(=O)[C@@H](N)Cc2ccccc2)C(=O)N[C@@H](CCCCNC(=O)CCCC[C@@H]2SC[C@@H]3NC(=O)N[C@@H]32)C(=O)O)C(=O)OCc2c1cc1n(c2=O)Cc2cc3ccccc3nc2-1` [FFKK-CPT, Phe-Phe-Lys(CPT)-Lys(Biotin)] (H-FFK(Succinyl(20-O-(20S)-CPT))K(Biotin)-OH) the hemolysis (Red blood cells (RBCs)) was “no significant hemolysis”.
